The source of these data is patent US11053238B2, “Benzimidazole derivatives, preparation methods and uses thereof” (BETTA PHARMACEUTICALS CO., LTD, priority 2016, dated 2021).

One series deals with CDK2/cyclin E (Homo sapiens (Human), UniProt P24941). Put plainly: 33P-ATP radiometric CDK kinase inhibitory activity and selectivity test. The series is classed as biochemical. From the text:
(§1) The mechanism of this method is shown in formula (II).
(§2) Data was processed with Prism4 Software (GraphPad), and the curve fitting formula was:
(§3) Y=Bottom+(Top−Bottom)/(1+10^((Log IC50−X)*HillSlope)); wherein, Y is percent inhibition (%); X is logarithm of concentration of the inhibitor.

The target of a further series is CDK9/cyclin T1 (Homo sapiens (Human), UniProt P50750). The description is as above. The format is biochemical.
Description: as §1, §2, §3

The test system of a further series is JeKo-1 cells. Put plainly: Tumor regression effect on JeKo-1 xenograft animal model. The format is in vivo, NOD/SCID mice. The conditions noted are these: 10-100 mg/kg orally once a day, 19 days. The procedure: JeKo-1 cells were cultured in RPMI 1640 medium containing 20% fetal bovine serum. Exponentially growing JeKo-1 cells were collected and resuspended in PBS to a suitable concentration for NOD/SCID mice subcutaneous tumor inoculation. Seventy female mice were inoculated subcutaneously on the right with 5×10^6 JeKo-1 cells, resuspended in PBS and matrigel (1:1). When the average tumor volume reached 134 mm^3, the mice were randomly grouped according to the size of the tumor and were administrated. Forty-eight mice were divided into the experimental group, and the remaining twenty-two mice were not used for experiment. Tumor volume is calculated as: long diameter×short diameter^2/2. […] Efficacy is evaluated according to the relative tumor growth inhibition rate of TGI.
The higher the TGI (%) value illustrates the better the potency; and vice versa.

The conditions of series [1]: BALB/c mice, 200 mg/kg (qd); for observation (mortality) / Body weight (weight loss) / weight loss (in words): oral gavage; for Body weight (weight loss): vs vehicle control; for mice death in each group (6 mice): after treatment for 2 weeks.
A further series addresses CDK2/CycA2 (Homo sapiens (Human), UniProt P24941). In words: CDK kinase assay (Caliper, FAM-labeled peptide).
A further series concerns the target CDK4/CycD3 (Homo sapiens (Human), UniProt P11802). Put plainly: CDK kinase assay (Caliper, FAM-labeled peptide).
Series [2] deals with Human colorectal cancer cells (colo-205). In words: MTS cell viability assay (cell proliferation). The format is cell-based. The conditions noted are these: colo-205 cells, 7 days of exposure. The procedure: Effects of test compounds on in vitro proliferation were measured by MTS cell viability assay.
Human colorectal cancer cells (colo-205) is expanded in culture (colo-205 is grown in DMEM media with 12% FBS, 1% P/S, and 1% L-glutamine).
MTS Cell Viability Assay:
1. Seed cells at density of 4×10^3 cells per well of 96-wells plates, grow for 24 h;
2. Add varying concentrations of test compounds to the cells;
3. Incubate for 7 days of exposure;
4. Prepare reagents following the instructions in the Cell Proliferation Assay kit (Promega);
5. Change to serum-free medium with a final volume of 100 μl/well. Prepare a set of wells with medium only for background subtraction;
6. Add 20 μl MTS solution containing PMS to each well (final concentration of MTS will be 0.33 mg/mL);
7. Incubate 1 to 4 h at 37° C. in a humidified, 5% CO2 atmosphere;
8. Record absorbance at 490 nm using VICTOR™ X5 plate reader (PerkinElmer).
All experimental points were set up in three wells and all experiments were repeated at least three times.

Another series addresses CDK6/cycD3 (Homo sapiens (Human), UniProt Q00534). In words: CDK kinase assay (Caliper, FAM-labeled peptide). The conditions noted are these: read-out: IC50(CDK6); CDK6/cycD3, ATP 800 μM.
[3] abbreviates: 33P-ATP, P81 membrane, read-out: CDK kinase inhibitory activity IC50, CDK2/cyclin E.
Where [4] appears, read: text summary for CDK1/2/7/9, read-out: IC50 for inhibiting CDK2.
The mark [5] stands for this setting: 33P-ATP, P81 membrane, read-out: CDK kinase inhibitory activity IC50, CDK9/cyclin T1.
Setting [6] is: text summary for CDK1/2/7/9, read-out: IC50 for inhibiting CDK9.
[7] abbreviates: IC50(CDK4), head-to-head comparison of substituent site, class symbols.

Each structure is given as a SMILES string. Like-named read-outs stand apart in the source and are kept apart here.

Chain of CDK9/cyclin T1 (P50750 whole entry, species assumed): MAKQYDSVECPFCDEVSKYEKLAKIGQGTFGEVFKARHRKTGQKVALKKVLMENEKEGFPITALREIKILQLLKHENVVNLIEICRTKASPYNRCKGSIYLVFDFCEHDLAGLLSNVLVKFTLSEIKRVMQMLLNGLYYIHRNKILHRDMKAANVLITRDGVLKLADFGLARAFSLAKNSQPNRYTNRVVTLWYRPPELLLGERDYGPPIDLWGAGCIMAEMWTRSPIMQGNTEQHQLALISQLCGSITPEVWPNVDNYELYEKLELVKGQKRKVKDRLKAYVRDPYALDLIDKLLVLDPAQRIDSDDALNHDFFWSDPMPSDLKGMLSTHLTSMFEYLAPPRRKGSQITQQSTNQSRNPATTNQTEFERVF
Chain of CDK9/cyclin T1 (O60563 whole entry partner, species assumed): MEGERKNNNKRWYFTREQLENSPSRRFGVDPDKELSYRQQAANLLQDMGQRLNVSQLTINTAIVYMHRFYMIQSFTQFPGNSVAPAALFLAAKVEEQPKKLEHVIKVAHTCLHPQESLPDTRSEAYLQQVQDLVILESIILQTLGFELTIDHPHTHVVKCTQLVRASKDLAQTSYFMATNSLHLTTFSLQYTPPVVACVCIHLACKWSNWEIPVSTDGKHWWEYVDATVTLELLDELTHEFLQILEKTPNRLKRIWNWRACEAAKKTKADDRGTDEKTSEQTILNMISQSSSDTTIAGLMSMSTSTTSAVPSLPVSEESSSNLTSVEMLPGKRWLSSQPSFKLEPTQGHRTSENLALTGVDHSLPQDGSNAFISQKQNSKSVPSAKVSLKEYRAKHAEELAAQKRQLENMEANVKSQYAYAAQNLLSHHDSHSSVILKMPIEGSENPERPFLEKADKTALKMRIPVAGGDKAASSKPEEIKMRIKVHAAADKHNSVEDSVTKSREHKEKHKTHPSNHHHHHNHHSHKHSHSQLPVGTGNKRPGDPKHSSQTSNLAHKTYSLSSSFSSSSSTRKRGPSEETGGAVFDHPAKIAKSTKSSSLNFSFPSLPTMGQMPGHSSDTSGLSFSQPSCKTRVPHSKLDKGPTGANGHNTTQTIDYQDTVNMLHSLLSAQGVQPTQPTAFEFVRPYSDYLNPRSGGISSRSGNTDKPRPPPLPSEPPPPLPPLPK
Chain of CDK4/CycD3 (P11802 whole entry, species assumed): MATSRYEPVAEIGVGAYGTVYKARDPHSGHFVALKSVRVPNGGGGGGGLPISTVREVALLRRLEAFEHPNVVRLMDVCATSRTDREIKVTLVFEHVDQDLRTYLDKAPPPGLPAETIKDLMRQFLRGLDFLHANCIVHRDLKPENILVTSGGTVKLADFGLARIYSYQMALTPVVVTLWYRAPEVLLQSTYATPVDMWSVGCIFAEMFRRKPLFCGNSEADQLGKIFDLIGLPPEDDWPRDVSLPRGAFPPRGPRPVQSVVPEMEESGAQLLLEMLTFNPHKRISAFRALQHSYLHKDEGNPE
Chain of CDK4/CycD3 (P30281 whole entry partner, species assumed): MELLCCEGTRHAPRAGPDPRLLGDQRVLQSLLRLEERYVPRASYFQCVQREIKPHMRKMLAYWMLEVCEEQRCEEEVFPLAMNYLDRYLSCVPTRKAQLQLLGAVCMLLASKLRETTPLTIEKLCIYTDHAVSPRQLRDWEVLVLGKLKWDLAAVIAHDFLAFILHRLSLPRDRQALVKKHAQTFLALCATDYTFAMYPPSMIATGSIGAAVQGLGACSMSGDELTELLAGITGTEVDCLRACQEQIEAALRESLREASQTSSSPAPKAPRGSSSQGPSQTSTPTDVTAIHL
Chain of CDK6/cycD3 (Q00534 whole entry, species assumed): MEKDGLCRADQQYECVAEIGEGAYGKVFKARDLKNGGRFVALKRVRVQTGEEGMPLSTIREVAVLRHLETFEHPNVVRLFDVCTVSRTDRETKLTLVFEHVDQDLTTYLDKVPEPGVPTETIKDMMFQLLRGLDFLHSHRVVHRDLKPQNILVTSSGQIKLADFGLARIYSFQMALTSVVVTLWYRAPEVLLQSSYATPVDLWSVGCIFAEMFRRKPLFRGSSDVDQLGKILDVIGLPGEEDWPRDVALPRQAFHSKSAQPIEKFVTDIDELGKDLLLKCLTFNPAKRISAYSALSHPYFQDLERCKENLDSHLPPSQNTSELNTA
Chain of CDK6/cycD3 (P30281 whole entry partner, species assumed): as the sequence (P30281 whole entry partner, species assumed) above

On to `CCN1CCN(Cc2ccc(Nc3ncc(F)c(-c4cc(F)c5nc6n(c5c4)C(C)CCC6)n3)nc2)CC1` (single isomer, unassigned) [Compound 2b, N-(5-((4-ethylpiperazin-1-yl)methyl)pyridin-2-yl)-5-fluoro-4-(6-fluoro-1-methyl-1,2,3,4-tetrahydrobenzo[4,5]imidazo[1,2-a]pyridin-8-yl)pyrimidin-2-amine], for which the IC50 at CDK2/cyclin E (setting [3]) is 441 nM; on CDK2/cyclin E (setting [4]), over 400 nM; on CDK9/cyclin T1 (setting [5]) it was 649 nM; at CDK9/cyclin T1 (setting [6]), over 400 nM. In the series with JeKo-1 cells, the “anti-tumor activity (in words)” value is “excellent anti-tumor activity”. In series [1], the “observation (mortality)” value was “−”. For the same compound, the “Body weight (weight loss)” value in series [1] is reported as “* (weight loss less than 5%)”.
As for `CC1(C)CCCc2nc3c(F)cc(-c4nc(Nc5ccc(CN6CCNCC6)cn5)ncc4F)cc3n21` [Com. EX. 6, 5-fluoro-4-(6-fluoro-1,1-dimethyl-1,2,3,4-tetrahydrobenzo[4,5]imidazo[1,2-a]pyridin-8-yl)-N-(5-(piperazin-1-ylmethyl)pyridin-2-yl)pyri midin-2-amine, reference compound], at CDK2/CycA2, the IC50 amounted to 40 nM.
As for `CCN1CCN(Cc2ccc(Nc3ncc(F)c(-c4cc(F)c5nc6n(c5c4)C(C)CCC6)n3)nc2)CC1` (single isomer, unassigned) [Compound 2a, N-(5-((4-ethylpiperazin-1-yl)methyl)pyridin-2-yl)-5-fluoro-4-(6-fluoro-1-methyl-1,2,3,4-tetrahydrobenzo[4,5]imidazo[1,2-a]pyridin-8-yl)pyrimidin-2-amine], the IC50 at CDK2/cyclin E (setting [3]) is 596 nM; at CDK2/cyclin E (setting [4]), over 400 nM; at CDK9/cyclin T1 (setting [5]) it was 779 nM; on CDK9/cyclin T1 (setting [6]) it was over 400 nM.
On to `CCN1CCN(Cc2ccc(Nc3ncc(F)c(-c4cc(F)c5nc6n(c5c4)CC(C)CC6)n3)nc2)CC1` (stereo not drawn) [Com. EX. No. 8, N-(5-((4-ethylpiperazin-1-yl)methyl)pyridin-2-yl)-5-fluoro-4-(6-fluoro-2-methyl-1,2,3,4-tetrahydrobenzo[4,5]imidazo[1,2-a]pyridin-8-yl) pyrimidin-2-amine], for which the IC50 at CDK4/CycD3 (setting [7]) fell in the range of 1000 to 2000 nM.
Turning to `CCN1CCN(Cc2ccc(Nc3ncc(F)c(-c4cc(F)c5nc6n(c5c4)C(C)COC6)n3)nc2)CC1` (single isomer, unassigned) [Compound 16b, N-(5-((4-ethylpiperazin-1-yl)methyl)pyridin-2-yl)-5-fluoro-4-(9-fluoro-4-methyl-3,4-dihydro-1H-benzo[4,5]imidazo[2,1-c][1,4]oxazin-7-yl)pyrimidin-2-amine], in series [1], the “observation (mortality)” value is listed as “−” and the “Body weight (weight loss)” value was “* (weight loss less than 5%)”. The compound further displayed an IC50 on CDK2/CycA2 of over 300 nM.
Take `CCN1CCN(Cc2ccc(Nc3ncc(F)c(-c4cc(F)c5nc6n(c5c4)C(C)COC6)n3)nc2)CC1` (stereo not drawn) [Compound 16, N-(5-((4-ethylpiperazin-1-yl)methyl)pyridin-2-yl)-5-fluoro-4-(9-fluoro-4-methyl-3,4-dihydro-1H-benzo[4,5]imidazo[2,1-c][1,4]oxazin-7-yl)pyrimidin-2-amine]: in series [1], the “weight loss (in words)” value is “almost little weight loss”.
On to `CCN1CCN(Cc2ccc(Nc3ncc(F)c(-c4cc(F)c5nc6n(c5c4)CCCC6C)n3)nc2)CC1` (stereo not drawn) [Com. EX. No. 10, N-(5((4-ethylpiperazin-l-yl)methyl)pyridin-2-yl)-5-fluoro-4-(6-fluoro-4-methyl-1,2,3,4-tetrahydrobenzo[4,5]imidazo[1,2-a]pyridin-8-yl) pyrimidin-2-amine], for which the IC50 against CDK4/CycD3 (setting [7]) lay in the range of 1000 to 2000 nM.
`CCN1CCN(Cc2ccc(Nc3ncc(F)c(-c4cc(F)c5nc6n(c5c4)C(C)CCC6)n3)nc2)CC1` (stereo not drawn) [Compound 2, N-(5-((4-ethylpiperazin-1-yl)methyl)pyridin-2-yl)-5-fluoro-4-(6-fluoro-1-methyl-1,2,3,4-tetrahydrobenzo[4,5]imidazo[1,2-a]pyridin-8-yl)pyrimidin-2-amine]: the IC50 in series [2] is 53 nM; on CDK2/cyclin E (setting [3]), 474 nM; at CDK2/cyclin E (setting [4]), over 400 nM; on CDK9/cyclin T1 (setting [5]), 572 nM; on CDK9/cyclin T1 (setting [6]) it was over 400 nM; against CDK2/CycA2, over 300 nM. In addition, in series [1], the “weight loss (in words)” value is on record as “almost little weight loss”.
Regarding `CC1(C)CCCc2nc3c(F)cc(-c4nc(Nc5ccc(N6CCN(C7COC7)CC6)cn5)ncc4F)cc3n21` [Com. EX. 5, 5-fluoro-4-(6-fluoro-1,1-dimethyl-1,2,3,4-tetrahydrobenzo[4,5]imidazo[1,2-a]pyridin-8-yl)-N-(5-(4-(oxetan-3-yl)piperazin-1-yl)pyridin-2-yl)pyrimidin-2-amine, reference compound], on CDK2/CycA2, the IC50 came out at 40 nM.
Regarding `CC1CCCc2nc3c(F)cc(-c4ccnc(Nc5ccc(N6CCN(C)CC6)cn5)n4)cc3n21` (stereo not drawn) [Compound 1, 4-(6-fluoro-1-methyl-1,2,3,4-tetrahydrobenzo[4,5]imidazo[1,2-a]pyridin-8-yl)-N-(5-(4-methylpiperazin-1-yl)pyridin-2-yl)pyrimidin-2-amine], the IC50 in series [2] was 78 nM; at CDK2/CycA2, over 300 nM.
For the compound `CN1CCN(c2ccc(Nc3ncc(F)c(-c4cc(F)c5nc6n(c5c4)C4(CCC6)CC4)n3)nc2)CC1` [Com. EX. 1, 5-fluoro-4-(6-fluoro-3,4-dihydro-2 H-spiro[benzo[4,5]imidazo,[1,2-a]pyridine-1,1′-cyclopropan]-8-yl)-N-(5-(4-methylpiperazin-1-yl)pyridin-2-yl)pyrimidin-2-amine], the IC50 in series [2] is 6640 nM.
`CCN1CCN(Cc2ccc(Nc3ncc(F)c(-c4cc(F)c5nc6n(c5c4)[C@H](C(C)C)COC6)n3)nc2)CC1` [Com. EX. 3b, (R)-N-(5-((4-ethylpiperazin-1-yl)methyl)pyridin-2-yl)-5-fluoro-4-(9-fluoro-4-isopropyl-3,4-dihydro-1 H-benzo[4,5]imidazo[2,1-c][1,4]oxazin-7-yl)pyrimidin-2-amine]: in series [1], the “mice death in each group (6 mice)” value is listed as 4; the “observation (mortality)” value is given as “+”; the “weight loss (in words)” value was “much more weight loss”; the “Body weight (weight loss)” value is “*** (weight loss more than 10% and less than 30%)”.
Regarding `CCN1CCN(Cc2ccc(Nc3ncc(F)c(-c4cc(F)c5nc(C)n(C(C)C)c5c4)n3)nc2)CC1` [LY2835219, Abemaciclib], in series [2], the IC50 came to 136 nM. Besides, the “observation (mortality)” value in series [1] is listed as “−”.
On to `CC[C@@H]1COCc2nc3c(F)cc(-c4nc(Nc5ccc(CN6CCN(CC)CC6)cn5)ncc4F)cc3n21` [Com. EX. 4b, (R)-4-(4-ethyl-9-fluoro-3,4-dihydro-1H-benzo[4,5]imidazo[2,1-c][1, 4]oxazin-7-yl)-N-(5-((4-ethylpiperazin-l-yl)methyl)pyridin-2-yl)-5-f luoropyimidin-2-amine], for which, in series [1], the “mice death in each group (6 mice)” value turned out to be 5; the “observation (mortality)” value was “+”; the “weight loss (in words)” value is “much more weight loss”; the “Body weight (weight loss)” value is “*** (weight loss more than 10% and less than 30%)”.
On to `CC1CCCn2c1nc1c(F)cc(-c3ccnc(Nc4ccc(N5CCN(C)CC5)cn4)n3)cc12` (stereo not drawn) [Com. EX. No. 7, 4-(6-fluoro-4-methyl-1,2,3,4-tetra hydrobenzo[4,5]imidazo[1,2-a]pyridin-8-yl)-N-(5-(4-methylpiperazin-1-yl)pyridin-2-yl)pyrimidin-2-a mine], for which the IC50 against CDK4/CycD3 was 57 nM; on CDK6/cycD3, 110 nM.
In the case of `CN1CCN(c2ccc(Nc3ncc(F)c(-c4cc(F)c5nc6n(c5c4)CCCC6)n3)nc2)CC1` [Com. EX. 2, 5-fluoro-4-(6-fluoro-1,2,3,4-tetrahydrobenzo[4,5]imidazo[1,2-a]pyridin-8-yl)-N-(5-(4-methylpiperazin-1-yl)pyridin-2-yl)pyrimidin-2-amine], in series [2], the IC50 was 8900 nM.
